Test results as given in patent EP0906913A1, “Pteridinderivatives as NO synthase inhibitors” (Werner, Ernst, priority 1997, dated 1999).

How the values were obtained:
[1] = biological target: T1, rekombinante, neuronale, Tetrahydrobiopterin-freie NO-Synthase (Rattus norvegicus, UniProt P29476); assay: Inhibition of recombinant neuronal tetrahydrobiopterin-free NO synthase ([3H]citrulline formation from [3H]arginine); type: biochemical; settings: for NO-Synthase -Aktivität / inhibition at 0.01 µM / inhibition at 0.1 µM / inhibition at 1 µM / inhibition at 10 µM / inhibition at 100 µM / inhibition at 1000 µM: 10 µM Tetrahydrobiopterin, 10 min, 37°C; for inhibition at 0.01 µM / inhibition at 0.1 µM / inhibition at 1 µM / inhibition at 10 µM / inhibition at 100 µM / inhibition at 1000 µM: read-out: Hemmung
T1 construct: made in house
Method: Zum Nachweis der Wirkung der Hemmstoffe eignet sich z.B. rekombinante, neuronale, Tetrahydrobiopterin-freie NO-Synthase, welche nach der Methode von List et al. 1996 (Ref. 7) hergestellt wird. Die NO-Synthaseaktivität wird dabei in Abhängigkeit von der Zugabe des NO-Synthase-Hemmstoffes durch die Bildung von [2,3,4,5-^3H]Citrullin aus [2,3,4,5-^3H]Arginin nach der Methode von Mayer et al. (Ref. 8) bestimmt. Dazu wird in 0.1 ml folgendes Gemisch für 10 min bei 37°C inkubiert: 0.1 µg NO-Synthase, 0.1mM [2,3,4,5-^3H]-L-Arginin (ca. 60000 cpm), 0.5 mM CaCl2, 10 µg/ml Calmodulin, 0.2 mM NADPH (Nicotinamidadenindinukleotid, reduzierte Form), 10 µM Tetrahydrobiopterin, 0-1000 µM NO-Synthase-Inhibitor (z.B. H2aminobiopterin), 5 µM FAD (Flavinadenindinucleutid), 5 µM FMN (Flavinmononucleotid), und 0.2 mM CHAPS (3-[(3-cholamidopropyl)dimethyl-amonio]-1-propansulfonat). Die Reaktion wird durch Zugabe von 0.9 ml 20 mM Natriumacetatpuffer, pH = 5,5, der 1 mM L-Citrullin enthält, gestoppt. Das Gemisch wird anschließend auf Ionenaustauschersäulen, die mit dem Material DOWEX AG50W-X8 gefüllt sind, aufgetragen, und das Eluat sowie die Waschflüssigkeit (1 ml Wasser) werden aufgefangen. 7 ml Scintillationscocktail werden zugegeben und die Radioaktivität, die ein Maß für die NO-Synthaseaktivität ist, wird mit einem Szintillationszähler bestimmt. Tabelle I

[2] = tested on: kultivierten, cytokin-stimulierten Mausfibroblasten; assay: Nitrite in supernatant of cultured cytokine-stimulated mouse fibroblasts (Griess reaction); type: cell-based, Maus; settings: for inhibition at 2.5 µM / inhibition at 10 µM / inhibition at 25 µM / inhibition at 100 µM / inhibition at 250 µM: Fibroblast, read-out: Hemmung; for inhibition at 2.5 µM / inhibition at 10 µM / inhibition at 25 µM / inhibition at 100 µM / inhibition at 250 µM / Nitrit im Überstand: 96 h, Interferon-gamma, TNF-alpha, LPS stimulated
Method: Zum Nachweis der Wirksamkeit einer Verbindung der vorliegenden Erfindung an kultivierten Zellen wurden Mausfibroblasten nach Werner-Felmayer et al., (Ref. 9) gewonnen und in RPMI 1640 Medium (Schoeller Pharma, Wien, Österreich) mit 20% Hitze-inaktiviertem fötalem Kälberserum (Schoeller Pharma) in einer Dichte von 10^5 Zellen pro ml ausgesät und mit 50 U/ml Mäuse-Interferongamma, 100 U/ml Tumornekrose Faktor-Alpha und 1 µg/ml Lipopolysaccharid (E. coli B55:05) in Gegenwart verschiedener Konzentrationen von Hemmstoffen kultiviert. Nach 96 h im Brutschrank (100% Luftfeuchtigkeit, 37°C, 5% CO2) werden die Überstände gesammelt und mit der Griess-Reaktion auf ihren Gehalt an Nitrit, einem Abbauprodukt von NO, analysiert. Die folgende Tabelle 2 zeigt einen Vergleich von H2aminobiopterin (R1 = R3 = H, R2 = R4 = OH, R5 = CH3), H4aminobiopterin und Beispiel 72 aus DE 4418097: Tabelle 2

NO-Synthase -Aktivität ([1]; inhibitor 0.01 µM)	inhibition at 0.01 µM ([1]; inhibitor 0.01 µM)	NO-Synthase -Aktivität ([1]; inhibitor 0.1 µM)	inhibition at 0.1 µM ([1]; inhibitor 0.1 µM)	NO-Synthase -Aktivität ([1]; inhibitor 1.0 µM)	inhibition at 1 µM ([1]; inhibitor 1.0 µM)	NO-Synthase -Aktivität ([1]; inhibitor 10. µM)	inhibition at 10 µM ([1]; inhibitor 10. µM)	NO-Synthase -Aktivität ([1]; inhibitor 100. µM)	inhibition at 100 µM ([1]; inhibitor 100. µM)	NO-Synthase -Aktivität ([1]; inhibitor 1000. µM)	inhibition at 1000 µM ([1]; inhibitor 1000. µM)	Structure (SMILES)	inhibition at 2.5 µM ([2]; inhibitor 2.5 µM)	inhibition at 10 µM ([2]; inhibitor 10 µM)	inhibition at 25 µM ([2]; inhibitor 25 µM)	inhibition at 100 µM ([2]; inhibitor 100 µM)	inhibition at 250 µM ([2]; inhibitor 250 µM)	Nitrit im Überstand ([2]; inhibitor 2.5 µM)	Nitrit im Überstand ([2]; inhibitor 10 µM)	Nitrit im Überstand ([2]; inhibitor 25 µM)	further results
294 nmol/mg/min	0.3%	283 nmol/mg/min	4%	242 nmol/mg/min	18%	110 nmol/mg/min	64%	48 nmol/mg/min	83%	25 nmol/mg/min	92%	C[C@H](O)[C@H](O)C1=Nc2c(N)nc(N)nc2NC1 [H2aminobiopterin, 2,4-diamino-7,8-dihydro-6(L-erythro-1,2-dihydroxylpropyl) pteridin]	35%	78%	99%	100%	100%	6.2 µM	2.1 µM	0.1 µM	Hemmung des Enzyms (Vergleich) ([1]; in words, compared with 6R-H4aminobiopterin): in der gleichen Größenordnung; Wirksamkeit am Enzym (Vergleich) ([1]; in words, compared with Beispiel 72 of DE 4418097): wesentlich wirksamer; Wirksamkeit an kultivierten Zellen (Vergleich) ([2]; in words, compared with previously known pteridine derivatives): deutlich wirksamer; Nitrit im Überstand ([2]; inhibitor 100 µM): 0.0 µM; Nitrit im Überstand ([2]; inhibitor 250 µM): 0.0 µM
279 nmol/mg/min	6%	262 nmol/mg/min	12%	181 nmol/mg/min	39%	72 nmol/mg/min	76%	35 nmol/mg/min	88%	24 nmol/mg/min	92%	C[C@H](O)[C@H](O)[C@H]1CNc2nc(N)nc(N)c2N1 [H4aminobiopterin, 2,4-Diamino-5,6,7,8-tetrahydro-6R-(L-erythro-1,2 dihydroxypropyl)pteridin, reference compound]	7%	36%	62%	96%	99%	9.3 µM	6.4 µM	3.8 µM	Nitrit im Überstand ([2]; inhibitor 100 µM): 0.4 µM; Nitrit im Überstand ([2]; inhibitor 250 µM): 0.02 µM
